Laboratory results taken from patent US11958821B2, “Phenethylamine compounds salts, polymorphic forms and methods of use thereof” (Terran Biosciences Inc., priority 2021, dated 2024).

Columns and labels:
[1] = Physical stability of MBDB salts at 40° C./75% RH; format: physicochemical
Description: During the screen, a single crystal Maleate 1 of sufficient size and quality was obtained from a vapor diffusion experiment with ethanol and hexane. The crystal structure is reported elsewhere but the data confirmed the anhydrous/unsolved nature of the material. […] Two new crystalline forms of MBDB Maleate were observed during the screening designated as MBDB Maleate 2 and MBDB Maleate 3 (FIG. 96, 97). Additional characterization of these samples was conducted to better understand the nature of the materials produced, as shown below. MBDB Maleate 2 was generated once from a cooling crystallization from dioxane. The proton nuclear magnetic resonance (NMR) spectrum was consistent with a monomaleate salt of MBDB and contained residual dioxane. Only a limited amount of material was recovered so the only additional characterization that could be completed was differential scanning calorimetry (DSC). The DSC thermogram appears consistent with an anhydrous/unsolvated form with a likely melt at 96° C. (FIG. 100). […] An attempt was made to reproduce Maleate 2 using the same conditions and seeds of Maleate 2. PXRD analysis of the recovered solids however was consistent with Maleate 1. MBDB Maleate 3 was isolated from an evaporation experiment involving chloroform and ethyl acetate. NMR analysis of the material was consistent with a mono-maleate salt of MBDB. Thermal analysis was consistent with an anhydrous/unsolvated material with a likely melting point of 73° C. (FIG. 101). […] No additional characterization was completed on this sample due to the limited amount of material that was recovered.

[2] = Dynamic vapor sorption (DVS) analysis with post-DVS XRPD; format: physicochemical; settings: for Hygroscopicity by DVS: 25° C., 5 to 95% RH; for Post-DVS XRPD (form change): solids after DVS analysis; for Hygroscopic?: based on moisture uptake at 95% observed during DVS analysis
Description: DVS analysis was carried out using a TA Instruments Q5000 Dynamic Vapor Sorption analyzer. The instrument was calibrated with standard weights and a sodium bromide standard for humidity. Approximately 5-25 mg of sample was loaded into a metal-coated quartz pan for analysis. The sample was analyzed at 25° C. with a maximum equilibration time of one hour in 10% relative humidity (RH) steps from 5 to 95% RH (adsorption cycle) and from 95 to 5% RH (desorption cycle). The movement from one step to the next occurred either after satisfying the equilibrium criterion of 0.01% weight change or, if the equilibrium criterion was not met, after one hour. The percent weight change values were calculated using Microsoft Excel®.

Male Sprague-Dawley rats [3] = test: Rat elevated zero-maze study with racemic MBDB, R-MBDB, S-MBDB and chlordiazepoxide; settings: for Dose showing a switch to an anxiolytic effect (magnitude of the reduction in SAPs): ip
Description: Two opposite quadrants are enclosed by Perspex walls on both the inner and the outer edges of the platform, while the remaining two opposite quadrants are open being enclosed only by a Perspex “lip”. Animals will show a preference for the closed areas, and avoidance of the open sections is assumed to stem from a rodent's natural aversion to open, exposed spaces. A reduction in the amount of activity on the open areas is considered to reflect an increase in anxiety. The ethologically-based behavior stretched attend postures (SAP) from closed to open quadrants is assessed as an index of anxiety. […] Animals
(§1) Male Sprague-Dawley 200-250 g (Envigo UK) rats were used. Animals were group-housed (5 per cage; cage size: 40×40×20 cm) in a temperature-controlled environment (22±2° C.), under a 12 h light-dark cycle (lights on: 08:00 hours) for one week prior to testing. Food and water were freely available. Number of animals per group=5.
(§2) The elevated 0-maze comprises a black Perspex annular platform (105 cm diameter, 10 cm width) elevated to 65 cm above ground level, divided equally into four quadrants. Two opposite quadrants are enclosed by clear red Perspex walls (27 cm high) on both the inner and outer edges of the platform, while the remaining two opposite quadrants are surrounded only by a Perspex “lip” (1 cm high) which serves as a tactile guide to animals on these open areas.
Subjects were weighed and tail marked before being injected. After a specified pretreatment time, subjects were placed in a closed quadrant and a 5-min test period were recorded on videotape for subsequent analysis. The maze was cleaned with 5% methanol/water solution and dried thoroughly between test sessions. Behavioural measures comprise percentage time spent on the open areas (% TO) and frequency of stretched attend postures (SAP) from closed to open quadrants. Since the control groups were all treated identically with the same vehicle these were combined to increase power. The Chlordiazepoxide groups were also treated identically with the same dose so these were also combined to increase power. Animals are scored as being in the open area when all four paws were in an open quadrant and in the closed area only when all four paws have passed over the open-closed divide.
Thirty min later at T=0, rats were individually placed in a closed arm of the zero-maze and behavior assessed by a “blind” observer using remote video monitoring over the subsequent 5 min. The animals were then removed and the maze carefully wiped with 5% methanol/water solution before the next test was begun.
Thirty min later at T=0, rats were individually placed in a closed arm of the zero-maze and behavior was assessed by a “blind” observer using remote video monitoring over the subsequent 5 min. The animal were then removed and the maze carefully wiped with 5% methanol/water solution before the next test was begun.
Thirty min later at T=0, rats were individually placed in a closed arm of the zero-maze and behavior was assessed by a “blind” observer using remote video monitoring over the subsequent 5 min.

Male Sprague-Dawley rats [4] = test: Rat elevated zero-maze study with racemic MDE, R-MDE, S-MDE and chlordiazepoxide; settings: positive control, 6 mg/kg ip
Description: A reduction in the amount of activity on the open areas is considered to reflect an increase in anxiety. The ethologically-based behavior, stretched attend postures (SAP) from closed to open quadrants, is assessed as an index of anxiety. […] Animals
as §1, §2
Subjects were weighed and tail marked before being injected. After a specified pretreatment time, subjects were placed in a closed quadrant and a 5-min test period were recorded on videotape for subsequent analysis. The maze was cleaned with 5% methanol/water solution and dried thoroughly between test sessions. Behavioural measures comprise percentage time spent on the open areas (% TO) and frequency of stretched attend postures (SAP) from closed to open quadrants. Animals are scored as being in the open area when all four paws were in an open quadrant and in the closed area only when all four paws have passed over the open-closed divide.
Thirty min later at T=0, rats were individually placed in a closed arm of the zero-maze and behavior was assessed by a “blind” observer using remote video monitoring over the subsequent 5 min. The animal was then removed and the maze carefully wiped with 5% methanol/water solution before the next test was begun.
Thirty min later at T=0, rats were individually placed in a closed arm of the zero-maze and behavior assessed by a “blind” observer using remote video monitoring over the subsequent 5 min. The animal was then removed and the maze carefully wiped with 5% methanol/water solution before the next test was begun.

Male Sprague-Dawley rats [5] = test: Rat elevated zero-maze study with MDAI and chlordiazepoxide; format: in vivo; settings: positive control, 6 mg/kg ip
Description: Three rats from the vehicle group, 3 rats from the 2.5 mg/kg MDAI group, and 3 rats from the CDP group were tested on a separate day from the other rats.

[6] = system: participants diagnosed with at least moderate post-traumatic stress disorder (PTSD); test: Double-blind, randomized, placebo-controlled clinical trial of MBDB-assisted psychotherapy in PTSD; format: in vivo, human; settings: for Change in CAPS-5 assessment: Study Conclusion, hydrochloride salt with psychotherapy; for Change in CAPS-5 assessment / Clinician-rated functional impairment score (SDS) / Depression (HAM-D): vs placebo; for Daytime sleepiness (ESS): human, in vivo; for Total dosage of drug to achieve significant mean reduction in CAPS-5: vs racemic MBDB-treated subgroup
Description: A multicenter, randomized, double-blind, placebo-controlled trial is conducted to assess the efficacy and safety of MBDB-assisted psychotherapy versus psychotherapy with placebo control in participants diagnosed with at least moderate post-traumatic stress disorder (PTSD).
This multicenter, randomized, double-blind, placebo-controlled trial is conducted at various sites in the United States with IRB approval from each study site. A flexible dose of MBDB hydrochloride salt or placebo, followed by a supplemental half-dose unless contraindicated by patient's previous response or medical history, is also administered during the Treatment Period with psychotherapy in at least 3 blinded monthly Experimental Sessions. The Supplemental Dose extends the duration of drug effects on the participants during an Experimental Session. MBDB test groups are further subdivided into specific groups receiving only racemic MBDB hydrochloride salt, S-MBDB hydrochloride salt, or R-MBDB hydrochloride salt. An optional Risk Evaluation and Mitigation Strategy (REMS) Protocol may be implemented for the racemic MBDB, S-MBDB, R-MBDB, and placebo-groups. The Treatment Period lasts for approximately 12 weeks. During the Treatment Period, each Experimental Session is followed by three Intervening Sessions of non-drug psychotherapy. Each Experimental Session involves an overnight stay. The Primary Outcome measure, the change in Clinician Administered PTSD Scale for DSM-5 (CAPS-5), is determined by a blinded Independent Rater (IR) pool multiple times throughout the study. The study consists of separate periods for each participant. Initially, prospective participants undergo a Screening Period involving an initial eligibility assessment, a medical history intake, informed consent, and enrollment of eligible participants. Next, a Preparation Period is undertaken for enrolled participants involving medication tapering and clinical baseline assessments to confirm each participant meets enrollment criteria. As part of the Preparation Period, a detailed assessment of co-morbidities to PTSD is recorded. Participants may remain on prescribed courses of selective serotonin reuptake inhibitor (SSRI) or serotonin and norepinephrine reuptake inhibitor (SNRI) treatment. Dosages and/or frequency of administration of a prescribed SSRI or SNRI may be adjusted to fit within study parameters. Participants may be required to taper a prescribed course of medication in order to maintain eligibility within the study. The Treatment Period consists of three monthly Experimental Sessions and associated Intervening Sessions of integrative behavioral psychotherapy. The Treatment Period lasts approximately 12 weeks. Following the Treatment Period is a Follow-up Period and Study Conclusion. During the Follow-up Period and Study Conclusion, participants complete 4 weeks with no study visits, followed by a Study Conclusion visit.
This study compares the effects of three blinded Experimental Sessions of psychotherapy in combination with flexible doses of MBDB or placebo administered as described below. Non-drug preparatory and intervening psychotherapy sessions are also included. Patient's weight is determined for dosage calculation. Initial dose is 180 mg unless this will result in a dosage of less than 1.5 mg/kg of patient weight. Initial dose thereby adjusted upward in 50 mg increments to deliver the lowest dose possible of at least 1.5 mg/kg of patient weight. Initial dose for Experimental Session 2 and 3 is cumulative dose calculated by adding the initial dose plus REMS protocol dose used the previous Experimental Session for each patient.
Randomization occurs prior to the initiation of Experimental Session 1. Each participant is provided the next randomized number in a sequence by a blinded study monitor. Participants are then randomized, according to a computer-generated randomization schedule, 1:1:1:1 to racemic MBDB, S-MBDB, R-MBDB, or placebo. […]

[7] = 5 mg/kg ip, continued anxiogenic effect

SMILES: CCC(Cc1ccc2c(c1)OCO2)NC.Cc1ccc(S(=O)(=O)O)cc1 (stereo not drawn) [Tosylate 1]
- Physical Stability ([1]; 40° C./75% RH overnight): No change

SMILES: CCC(Cc1ccc2c(c1)OCO2)NC.O=C(O)CCC(=O)O (stereo not drawn) [MBDB succinate Form 2]
- Hygroscopicity by DVS [2]: moderately hygroscopic
- Post-DVS XRPD (form change) [2]: no form change
- Physical Stability ([1]; after 1 day at 40° C./75% RH): No visible change

SMILES: CNC1=Nc2ccc(Cl)cc2C(c2ccccc2)=[N+]([O-])C1 [CDP, Chlordiazepoxide, reference compound]
- Frequency of stretched attend postures (SAP) (Male Sprague-Dawley rats [3]; positive control, 6 mg/kg ip): significant reduction in SAPs
- Percentage of time in the open arms (% TO) (Male Sprague-Dawley rats [3]; positive control, 6 mg/kg ip): did not show significance over vehicle
- Frequency of stretched attend postures (SAP) (Male Sprague-Dawley rats [4]): significant reduction in SAPs
- Percentage of time spent in the open arms (% TO) (Male Sprague-Dawley rats [4]): significant increase in time in the open arms for the R MDE group and S MDE group only
- Frequency of HDIPS (Male Sprague-Dawley rats [5]): trend towards increased
- Percentage of time in the open arms (% TO) (Male Sprague-Dawley rats [5]): significant increase in the percentage of time in the open arms
- Total line crossings (Male Sprague-Dawley rats [5]): trend towards increased
- Total open arm entries (Male Sprague-Dawley rats [5]): trend towards increased

SMILES: CCC(Cc1ccc2c(c1)OCO2)NC.O=C(O)CCC(=O)O (single isomer, unassigned) [Succinate 1]
- Physical Stability ([1]; 40° C./75% RH overnight): Tacky solids

SMILES: CC[C@H](Cc1ccc2c(c1)OCO2)NC [R-MBDB]
- Frequency of stretched attend postures (SAP) (Male Sprague-Dawley rats [3]; 10 mg/kg ip): consistent level of SAPs similar to the 5 mg/kg
- Frequency of stretched attend postures (SAP) (Male Sprague-Dawley rats [3]; 15 mg/kg ip): reduction in the number of SAPs compared to lower doses
- Frequency of stretched attend postures (SAP) (Male Sprague-Dawley rats [3]; 30 mg/kg ip): decreased the frequency of SAPs as effectively as the benzodiazepine chlordiazepoxide
- Frequency of stretched attend postures (SAP) (Male Sprague-Dawley rats [3]; 30 mg/kg ip, listed as R MBDB): significantly reduced the number of SAPs
- Dose showing a switch to an anxiolytic effect (magnitude of the reduction in SAPs) (Male Sprague-Dawley rats [3]): 15 mg/kg
- Change in CAPS-5 assessment [6]: significant mean reduction in CAPS-5 assessment compared to the placebo group
- Daytime sleepiness (ESS) [6]: significant improvement in lessening daytime sleepiness
- Clinician-rated functional impairment score (SDS) [6]: significant improvement in clinician-rated functional impairment score
- Depression (HAM-D) [6]: significant improvement depression
- Total dosage of drug to achieve significant mean reduction in CAPS-5 [6]: lower total dosage of drug compared to the racemic MBDB-treated subgroup

SMILES: CCC(Cc1ccc2c(c1)OCO2)NC.O=C(O)CC(=O)O (stereo not drawn) [Malonate 1]
- Physical Stability ([1]; 40° C./75% RH overnight): No change

SMILES: CCC(Cc1ccc2c(c1)OCO2)NC.O=C(O)CC(O)(CC(=O)O)C(=O)O (stereo not drawn) [Citrate 1]
- Physical Stability ([1]; 40° C./75% RH overnight): Tacky solids

SMILES: CCC(Cc1ccc2c(c1)OCO2)NC.O=C(O)/C=C/C(=O)O (stereo not drawn) [Fumarate 1]
- Physical Stability ([1]; 40° C./75% RH overnight): No change

SMILES: CCC(Cc1ccc2c(c1)OCO2)NC (racemic) [racemic MBDB]
- Frequency of stretched attend postures (SAP) (Male Sprague-Dawley rats [3]; [7]): reached significance
- Frequency of stretched attend postures (SAP) (Male Sprague-Dawley rats [3]; 10 mg/kg ip): consistent level of SAPs similar to the 5 mg/kg
- Frequency of stretched attend postures (SAP) (Male Sprague-Dawley rats [3]; 30 mg/kg ip): showed a trend toward significance
- Dose showing a switch to an anxiolytic effect (magnitude of the reduction in SAPs) (Male Sprague-Dawley rats [3]): 30 mg/kg
- Change in CAPS-5 assessment [6]: significant mean reduction in CAPS-5 assessment compared to the placebo group
- Daytime sleepiness (ESS) [6]: significant improvement in lessening daytime sleepiness
- Clinician-rated functional impairment score (SDS) [6]: significant improvement in clinician-rated functional impairment score
- Depression (HAM-D) [6]: significant improvement depression

SMILES: CCC(Cc1ccc2c(c1)OCO2)NC.O=S(=O)(O)O (stereo not drawn) [Sulfate 1]
- Physical Stability ([1]; 40° C./75% RH overnight): Deliquesced

SMILES: CCC(Cc1ccc2c(c1)OCO2)NC.O=C(O)CCC(=O)O (single isomer, unassigned) [Succinate 2]
- Hygroscopicity by DVS [2]: possible hydrate formation at high RH conditions
- Hygroscopic? [2]: Moderately
- Physical Stability ([1]; 40° C./75% RH overnight): No change

SMILES: CC[C@@H](Cc1ccc2c(c1)OCO2)NC [S-MBDB]
- Frequency of stretched attend postures (SAP) (Male Sprague-Dawley rats [3]; [7]): reached significance
- Frequency of stretched attend postures (SAP) (Male Sprague-Dawley rats [3]; 10 mg/kg ip): rapid reduction in total SAPs
- Frequency of stretched attend postures (SAP) (Male Sprague-Dawley rats [3]; 15 mg/kg ip): reduction in the number of SAPs compared to lower doses
- Frequency of stretched attend postures (SAP) (Male Sprague-Dawley rats [3]; 30 mg/kg ip): decreased the frequency of SAPs as effectively as the benzodiazepine chlordiazepoxide
- Magnitude of the reduction in SAPs among MBDB forms (Male Sprague-Dawley rats [3]; 30 mg/kg ip): greatest
- Frequency of stretched attend postures (SAP) (Male Sprague-Dawley rats [3]; 30 mg/kg ip, listed as S MBDB): significantly reduced the number of SAPs
- Dose showing a switch to an anxiolytic effect (magnitude of the reduction in SAPs) (Male Sprague-Dawley rats [3]): 10 mg/kg
- Change in CAPS-5 assessment [6]: significant mean reduction in CAPS-5 assessment compared to the placebo group
- Daytime sleepiness (ESS) [6]: significant improvement in lessening daytime sleepiness
- Clinician-rated functional impairment score (SDS) [6]: significant improvement in clinician-rated functional impairment score
- Depression (HAM-D) [6]: significant improvement depression
- Adverse anxiogenic incidents ([6]; vs placebo-treated controls): without a significant increase in adverse anxiogenic incidents
- Total dosage of drug to achieve significant mean reduction in CAPS-5 [6]: lower total dosage of drug compared to the racemic MBDB-treated subgroup

SMILES: CCC(Cc1ccc2c(c1)OCO2)NC.O=C(O)[C@@H](O)[C@H](O)[C@H](O)[C@@H](O)C(=O)O (stereo not drawn) [Galactarate 1]
- Physical Stability ([1]; 40° C./75% RH overnight): No change

SMILES: CCC(Cc1ccc2c(c1)OCO2)NC.O=P(O)(O)O (stereo not drawn) [Phosphate 1]
- Hygroscopicity by DVS [2]: hygroscopic
- Hygroscopic? [2]: Hygroscopic
- Post-DVS XRPD (form change) [2]: no form change
- Physical Stability ([1]; 40° C./75% RH overnight): No change
- Physical Stability ([1]; after 1 day at 40° C./75% RH): No visible change
